Measurements: patent US5545547A, “Enzymes as agricultural chemical adjuvants” (priority 1992, dated 1996)

What was measured:
Format in all cases: in vivo
Soybeans = assay: Greenhouse multispecies herbicide screen with/without P. mendocina enzyme; conditions: two weeks after treatment
From the text: (§1) Several plant species including weeds and crops are used in these experiments.
(§2) A number of herbicides from various chemical classes were compared in a multispecies screen for percent chlorosis, necrosis and vigor reduction both with and without application of the enzyme from Pseudomonas mendocina ATCC 53552 described earlier. The herbicides were applied to various plants at the manufacturers recommended doses and at 10% and 40% of the recommended dose. Two different enzyme concentrations were used: 0.5 mg/ml (HE) and 0.05 mg/ml (LE) and applied at the rate of 40 gallons/acre. All spraying solutions were at pH 10 and contained 100 mm sodium phosphate each. Ratings were done at 6 and 12 days after the treatment. All the experiments were carried out in a greenhouse.
(§3) Chlorosis--figures represent percent of plants showing chlorosis.
(§4) Necrosis--figures represent percent of plants showing necrosis.
(§5) Vigor--figures represent percent of plants showing decreased vigor.
(§6) Phytotoxicity--figures represent the average percent of chlorosis, necrosis, and vigor for a given sample.
(§7) The method of Example 1 was used except that the enzyme was applied 2 hours prior to administering the agricultural chemical with the following results. Ratings were done two weeks after treatment

Turnip = assay: as above; conditions: for CHL (chlorosis) / NEC (necrosis) / PHY (phytotoxicity) / VIG (vigor) / % PHY (phytotoxicity): two weeks after treatment
From the text: as §1, §2, §3, §4, §5, §6, §7

various plants = assay: Greenhouse multispecies herbicide screen, statements on all tested plants
From the text: as §1
as §2, with “Ratings were done at 6 and 12 days after the treatment.” left out

[1] = Example 8: BASAGRAN 10% dose, High Enzyme applied 2 hours prior
[2] = Example 8: BASAGRAN 10% dose, Low Enzyme applied 2 hours prior
[3] = Example 8: BASAGRAN 10% dose, No Enzyme

CC(C)N1C(=O)c2ccccc2NS1(=O)=O [BASAGRAN, 3-(1-methylethyl)-1H-,2,1,3-benzothiadiazin-4(3H)-one 2,2-dioxide]
CHL (chlorosis) (Soybeans; BASAGRAN 10% dose, High Enzyme): 18% | NEC (necrosis) (Soybeans; BASAGRAN 10% dose, High Enzyme): 38% | PHY (phytotoxicity) (Soybeans; BASAGRAN 10% dose, High Enzyme): 43% | VIG (vigor) (Soybeans; BASAGRAN 10% dose, High Enzyme): 73% | CHL (chlorosis) (Soybeans; BASAGRAN 10% dose, Low Enzyme): 18% | NEC (necrosis) (Soybeans; BASAGRAN 10% dose, Low Enzyme): 43% | PHY (phytotoxicity) (Soybeans; BASAGRAN 10% dose, Low Enzyme): 37% | VIG (vigor) (Soybeans; BASAGRAN 10% dose, Low Enzyme): 50% | CHL (chlorosis) (Soybeans; BASAGRAN 10% dose, No Enzyme): 5% | NEC (necrosis) (Soybeans; BASAGRAN 10% dose, No Enzyme): 5% | PHY (phytotoxicity) (Soybeans; BASAGRAN 10% dose, No Enzyme): 8% | VIG (vigor) (Soybeans; BASAGRAN 10% dose, No Enzyme): 13% | % PHY (phytotoxicity) (Soybeans; [1]): 2% | CHL (chlorosis) (Soybeans; [1]): 0% | NEC (necrosis) (Soybeans; [1]): 5% | VIG (vigor) (Soybeans; [1]): 0% | % PHY (phytotoxicity) (Soybeans; [2]): 48% | CHL (chlorosis) (Soybeans; [2]): 48% | NEC (necrosis) (Soybeans; [2]): 48% | VIG (vigor) (Soybeans; [2]): 48% | % PHY (phytotoxicity) (Soybeans; [3]): 25% | CHL (chlorosis) (Soybeans; [3]): 25% | NEC (necrosis) (Soybeans; [3]): 25% | VIG (vigor) (Soybeans; [3]): 25% | CHL (chlorosis) (Turnip; BASAGRAN 10% dose, High Enzyme): 38% | NEC (necrosis) (Turnip; BASAGRAN 10% dose, High Enzyme): 50% | PHY (phytotoxicity) (Turnip; BASAGRAN 10% dose, High Enzyme): 50% | VIG (vigor) (Turnip; BASAGRAN 10% dose, High Enzyme): 63% | CHL (chlorosis) (Turnip; BASAGRAN 10% dose, Low Enzyme): 38% | NEC (necrosis) (Turnip; BASAGRAN 10% dose, Low Enzyme): 63% | PHY (phytotoxicity) (Turnip; BASAGRAN 10% dose, Low Enzyme): 59% | VIG (vigor) (Turnip; BASAGRAN 10% dose, Low Enzyme): 75% | CHL (chlorosis) (Turnip; BASAGRAN 10% dose, No Enzyme): 25% | NEC (necrosis) (Turnip; BASAGRAN 10% dose, No Enzyme): 25% | PHY (phytotoxicity) (Turnip; BASAGRAN 10% dose, No Enzyme): 29% | VIG (vigor) (Turnip; BASAGRAN 10% dose, No Enzyme): 38% | % PHY (phytotoxicity) (Turnip; [1]): 41% | CHL (chlorosis) (Turnip; [1]): 30% | NEC (necrosis) (Turnip; [1]): 50% | VIG (vigor) (Turnip; [1]): 43% | % PHY (phytotoxicity) (Turnip; [2]): 78% | CHL (chlorosis) (Turnip; [2]): 63% | NEC (necrosis) (Turnip; [2]): 85% | VIG (vigor) (Turnip; [2]): 85% | % PHY (phytotoxicity) (Turnip; [3]): 48% | CHL (chlorosis) (Turnip; [3]): 25% | NEC (necrosis) (Turnip; [3]): 63% | VIG (vigor) (Turnip; [3]): 55% | Plants killed (various plants; BASAGRAN applied at 40% of the recommended dosage, two weeks after treatment): completely killed

CN(C)C(=O)Nc1ccc(Cl)c(Cl)c1 [KARMEX, 3-(3,4-dichlorophenyl)-1,1-dimethylurea]
CHL (chlorosis) (Soybeans; KARMEX 10% dose, High Enzyme): 0% | NEC (necrosis) (Soybeans; KARMEX 10% dose, High Enzyme): 0% | PHY (phytotoxicity) (Soybeans; KARMEX 10% dose, High Enzyme): 0% | VIG (vigor) (Soybeans; KARMEX 10% dose, High Enzyme): 0% | CHL (chlorosis) (Soybeans; KARMEX 10% dose, Low Enzyme): 0% | NEC (necrosis) (Soybeans; KARMEX 10% dose, Low Enzyme): 0% | PHY (phytotoxicity) (Soybeans; KARMEX 10% dose, Low Enzyme): 0% | VIG (vigor) (Soybeans; KARMEX 10% dose, Low Enzyme): 0% | CHL (chlorosis) (Soybeans; KARMEX 10% dose, No Enzyme): 0% | NEC (necrosis) (Soybeans; KARMEX 10% dose, No Enzyme): 0% | PHY (phytotoxicity) (Soybeans; KARMEX 10% dose, No Enzyme): 0% | VIG (vigor) (Soybeans; KARMEX 10% dose, No Enzyme): 0% | CHL (chlorosis) (Soybeans; KARMEX 40% dose, High Enzyme): 0% | NEC (necrosis) (Soybeans; KARMEX 40% dose, High Enzyme): 13% | PHY (phytotoxicity) (Soybeans; KARMEX 40% dose, High Enzyme): 8% | VIG (vigor) (Soybeans; KARMEX 40% dose, High Enzyme): 10% | CHL (chlorosis) (Soybeans; KARMEX 40% dose, Low Enzyme): 0% | NEC (necrosis) (Soybeans; KARMEX 40% dose, Low Enzyme): 15% | PHY (phytotoxicity) (Soybeans; KARMEX 40% dose, Low Enzyme): 6% | VIG (vigor) (Soybeans; KARMEX 40% dose, Low Enzyme): 5% | CHL (chlorosis) (Soybeans; KARMEX 40% dose, No Enzyme): 0% | NEC (necrosis) (Soybeans; KARMEX 40% dose, No Enzyme): 10% | PHY (phytotoxicity) (Soybeans; KARMEX 40% dose, No Enzyme): 3% | VIG (vigor) (Soybeans; KARMEX 40% dose, No Enzyme): 0% | CHL (chlorosis) (Turnip; KARMEX 10% dose, High Enzyme): 18% | NEC (necrosis) (Turnip; KARMEX 10% dose, High Enzyme): 15% | PHY (phytotoxicity) (Turnip; KARMEX 10% dose, High Enzyme): 11% | VIG (vigor) (Turnip; KARMEX 10% dose, High Enzyme): 0% | CHL (chlorosis) (Turnip; KARMEX 10% dose, Low Enzyme): 18% | NEC (necrosis) (Turnip; KARMEX 10% dose, Low Enzyme): 15% | PHY (phytotoxicity) (Turnip; KARMEX 10% dose, Low Enzyme): 11% | VIG (vigor) (Turnip; KARMEX 10% dose, Low Enzyme): 5% | CHL (chlorosis) (Turnip; KARMEX 10% dose, No Enzyme): 28% | NEC (necrosis) (Turnip; KARMEX 10% dose, No Enzyme): 10% | PHY (phytotoxicity) (Turnip; KARMEX 10% dose, No Enzyme): 13% | VIG (vigor) (Turnip; KARMEX 10% dose, No Enzyme): 0% | CHL (chlorosis) (Turnip; KARMEX 40% dose, High Enzyme): 35% | NEC (necrosis) (Turnip; KARMEX 40% dose, High Enzyme): 25% | PHY (phytotoxicity) (Turnip; KARMEX 40% dose, High Enzyme): 36% | VIG (vigor) (Turnip; KARMEX 40% dose, High Enzyme): 50% | CHL (chlorosis) (Turnip; KARMEX 40% dose, Low Enzyme): 30% | NEC (necrosis) (Turnip; KARMEX 40% dose, Low Enzyme): 50% | PHY (phytotoxicity) (Turnip; KARMEX 40% dose, Low Enzyme): 41% | VIG (vigor) (Turnip; KARMEX 40% dose, Low Enzyme): 43% | CHL (chlorosis) (Turnip; KARMEX 40% dose, No Enzyme): 25% | NEC (necrosis) (Turnip; KARMEX 40% dose, No Enzyme): 38% | PHY (phytotoxicity) (Turnip; KARMEX 40% dose, No Enzyme): 33% | VIG (vigor) (Turnip; KARMEX 40% dose, No Enzyme): 37% | Phytotoxicity with enzyme (Turnip; KARMEX at 40% of the recommended dosage, with enzyme, sprayed on turnips): increased phytotoxicity | Phytotoxicity (various plants; KARMEX under the test conditions): low
